Test results from article PMC3199943, “Screening the MayBridge Rule of 3 Fragment Library for Compounds That Interact with the Trypanosoma brucei myo-Inositol-3-Phosphate Synthase and/or Show Trypanocidal Activity” (Molecular Biology International, 2011).
Structures can show the parent of a compound that is named as a salt. Where two headings read alike, the source gives them in different places.

What was measured:
HeLa cells = assay: cells; details: for viability at 500 µM / CC50: Homo sapiens, HeLa; for viability at 500 µM: 65 h; for HeLa Cells Alamar Blue: Supplementary Table 1; for CC50: read-out: HeLa ED50
Procedure: (§1) Cytotoxic effects against HeLa and A549 cells were determined in a similar manner. Briefly, the cells were cultured in DMEM supplemented with 10% FCS and 2 mM L-Glutamine. Cells were plated at initial cell concentration of 2 × 10^4 cells/well and incubated with the compounds for ~65 hours prior to addition of Alamar Blue solution for a further 5 hours.

A549 cells = assay: Cytotoxicity against A549 cells, Alamar Blue; type: cell-based; details: Supplementary Table 1, compound 0.5 mM, percentage of controls (n=1); for viability at 500 µM: Homo sapiens, A549, 65 h
Procedure: as §1

[1] = read-out: HeLa Cells Alamar Blue
[2] = compound 0.5 mM, percentage of controls, mean ± SD (n=3) or SE (n=2)
[3] = read-out: HeLa Cells Alamar Blue, Supplementary Table 1, compound 0.5 mM, percentage of controls, mean ± SD (n=3) or SE (n=2)

Structure (SMILES) | viability at 500 µM (HeLa cells; [1]) | viability at 500 µM (A549 cells) | other results
CN(C)CCOc1ccc(C#N)cc1 [compound 542, 4‐[2‐(dimethylamino)ethoxy]benzonitrile] | 91.6 ± 9.5% | 69.7% | 
OCc1ccc(Oc2ccccn2)cc1 [compound 629, [4‐(pyrid‐2‐yloxy)phenyl]methanol] | 84.1 ± 9.9% | 96.1% | 
Cc1cc(C)n(C)n1 [compound 24, 1,3,5‐trimethyl‐1H‐pyrazole] | 99.7 ± 11.5% | 88.5% | 
OCc1cc2ccccc2o1 [compound 167, 1‐benzofuran‐2‐ylmethanol] | 84.9 ± 19.3% | 78.2% | 
OCc1ccc(Cn2ccnc2)cc1 [compound 528, [4‐(1H‐imidazol‐1‐ylmethyl)phenyl]methanol] |  |  | HeLa Cells Alamar Blue (HeLa cells; [2]): 90.8 ± 4.5 percentage of controls; A549 Cells Alamar Blue (A549 cells): 81.2 percentage of controls
CC(C)(C)c1ccc(N)cc1 [compound 178, 4‐(tert‐butyl)aniline] | 109 ± 18.8% | 87.6% | 
c1ccc2c(c1)CCO2 [compound 49, 2,3‐dihydrobenzo[b]furan] | 102 ± 8.6% | 87.3% | 
OCc1ccc(-c2ccncc2)cc1 [compound 488, (4‐pyrid‐4‐ylphenyl)methanol] | 65.5 ± 17.5% | 133% | 
COc1ccc(CC#N)cc1 [compound 161, 2‐(4‐methoxyphenyl)acetonitrile] |  | 88.7% | viability at 500 µM (HeLa cells; [3]): 108 ± 3.1%
Nc1ccc2c(c1)OCCCO2 [compound 308, 3,4‐dihydro‐2H‐1,5‐benzodioxepin‐7‐amine] |  |  | HeLa Cells Alamar Blue (HeLa cells; [2]): 98.7 ± 6.1 percentage of controls; A549 Cells Alamar Blue (A549 cells): 82.8 percentage of controls
Oc1ccc(SC(F)(F)F)cc1 [compound 584, 4‐[(trifluoromethyl)thio]phenol] | 97.5 ± 15.9% | 68.4% | 
COc1ccccc1CCC(=O)O [compound 452, 3‐(2‐methoxyphenyl)propanoic acid] | 97.3 ± 7.2% | 61.6% | 
COC(=O)c1ccc2ncccc2c1 [compound 515, methyl quinoline‐6‐carboxylate] | 69.9 ± 8.1% | 67.8% | 
CN1CCN(c2ccc(N)cc2)CC1 [compound 562, 4‐(4‐methylpiperazino)aniline] | 8.2 ± 6.5% | 17.5% | 
OCCc1ccc2c(c1)OCO2 [compound 321, 2‐(1,3‐benzodioxol‐5‐yl)ethanol] | 109 ± 5.9% | 138% | 
O=C(O)CSCc1ccccc1 [compound 465, 2‐(benzylthio)acetic acid] | 99 ± 9.3% | 67.9% | 
NCc1ccc(CN2CCCCC2)cc1 [compound 658, [4‐(piperidinomethyl)phenyl]methylamine] |  |  | HeLa Cells Alamar Blue (HeLa cells; [2]): 22.8 ± 5.5 percentage of controls; A549 Cells Alamar Blue (A549 cells): 123.5 percentage of controls
OCC1CCNCC1 [compound 40, 4‐piperidylmethanol] | 84.3 ± 9% | 104% | 
CC(=O)c1ccc(F)c(Cl)c1 [compound 367, 1‐(3‐chloro‐4‐fluorophenyl)ethan‐1‐one] | 98.7 ± 6.5% | 58.8% | 
OC1CCSCC1 [compound 47, tetrahydro‐2H‐thiopyran‐4‐ol] | 95 ± 10% | 74.9% | 
NCc1ccc(-n2cccc2)cc1 [compound 365, 4‐(1H‐pyrrol‐1‐yl)benzylamine] | 50.9 ± 11% | 94.4% | CC50 (HeLa cells): 71.8 ± 3.7 µM
CC(C)(C)C(=O)Nc1ccncc1 [compound 439, 2,2‐dimethyl‐N‐(4‐pyridinyl)propanamide] | 54.6 ± 4.5% | 65% | 
NC(=S)COc1cccc(Cl)c1 [compound 633, 2‐(3‐chlorophenoxy)ethanethioamide] | 46.9 ± 11.1% | 90.3% | 
OCc1scc2c1OCCO2 [compound 361, 2,3‐dihydrothieno[3,4‐b][1,4]dioxin‐5‐ylmethanol] |  |  | HeLa Cells Alamar Blue (HeLa cells; [2]): 68.5 ± 12.9 percentage of controls; A549 Cells Alamar Blue (A549 cells): 93.7 percentage of controls
Cc1cc(C)on1 [compound 4, 3,5‐dimethylisoxazole] | 108 ± 5.3% | 123% | 
FC(F)(F)c1cc[nH]n1 [compound 114, 3‐(trifluoromethyl)‐1H‐pyrazole] | 85.9 ± 6.1% | 73.8% | 
OCc1cccc2c1OCCO2 [compound 322, 2,3‐dihydro‐1,4‐benzodioxin‐5‐ylmethanol] |  |  | HeLa Cells Alamar Blue (HeLa cells; [2]): 100.4 ± 14.9 percentage of controls; A549 Cells Alamar Blue (A549 cells): 96.4 percentage of controls
FC(F)(F)C1=NCCNC=C1 [compound 295, 5‐(trifluoromethyl)‐2,3‐dihydro‐1H‐1,4‐diazepine] |  |  | HeLa Cells Alamar Blue (HeLa cells; [2]): 75.2 ± 18.7 percentage of controls; A549 Cells Alamar Blue (A549 cells): 72.1 percentage of controls

Structure (SMILES) | viability at 500 µM (HeLa cells; [1]) | viability at 500 µM (A549 cells) | other results
Cn1nc(-c2ccccc2)cc1CO [compound 524, (1‐methyl‐3‐phenyl‐1H‐pyrazol‐5‐yl)methanol] |  |  | HeLa Cells Alamar Blue (HeLa cells; [2]): 88.2 ± 10.3 percentage of controls; A549 Cells Alamar Blue (A549 cells): 60.7 percentage of controls
COC(=O)c1ccccc1C#N [compound 274, methyl 2‐cyanobenzoate] | 91 ± 19.6% | 64% | 
c1ccc(-c2c[nH]cn2)cc1 [compound 149, 4‐phenyl‐1H‐imidazole] | 80.2 ± 11.7% | 99.1% | 
N#Cc1cccc(-c2ccco2)c1 [compound 338, 3‐(2‐furyl)benzonitrile] | 18.5 ± 15.2% | 57.8% | 
Cc1ccc(CO)cc1C [compound 119, (3,4‐dimethylphenyl)methanol] | 84.7 ± 15.3% | 124% | 
Cc1ccc(-c2cnco2)cc1 [compound 259, 5‐(4‐methylphenyl)‐1,3‐oxazole] | 88.4 ± 2.5% | 88.1% | 
O=C(O)c1csc2ccccc12 [compound 432, 1‐benzothiophene‐3‐carboxylic acid] | 88.5 ± 12.2% | 55.1% | 
N#Cc1ccc(N2CCNCC2)cc1 [compound 518, 4‐Piperazin‐1‐yl‐benzonitrile] | 92.1 ± 11% | 84.7% | 
OCCc1cccnc1 [compound 63, 2‐(3‐pyridyl)ethan‐1‐ol] | 105 ± 13.1% | 76.9% | 
Nc1cccc(N)c1 [compound 461, benzene‐1,3‐diamine dihydrochloride] |  | 91.8% | viability at 500 µM (HeLa cells; [3]): 106 ± 10.7%
COc1ccc(N)c(OC)c1 [compound 213, 2,4‐dimethoxyaniline] | 14 ± 8.2% | 61.2% | CC50 (HeLa cells): 710 ± 96 µM
NC(=S)CSc1ccccc1 [compound 472, 2‐(phenylthio)ethanethioamide] | 76.5 ± 11.2% | 86% | 
OCc1ccc(Cn2cccn2)cc1 [compound 529, [4‐(1H‐pyrazol‐1‐ylmethyl)phenyl]methanol] |  |  | HeLa Cells Alamar Blue (HeLa cells; [2]): 85 ± 5.2 percentage of controls; A549 Cells Alamar Blue (A549 cells): 94 percentage of controls
C#Cc1ccc(OCCCC)cc1 [compound 388, 1‐butoxy‐4‐eth‐1‐ynylbenzene] | 107 ± 8% | 114% | 
O=C(O)C1CCOCC1 [compound 92, tetrahydro‐2H‐pyran‐4‐carboxylic acid] | 78.4 ± 15.8% | 118% | 
Cn1ccc2ccc(C(=O)O)cc21 [compound 398, 1‐methyl‐1H‐indole‐6‐carboxylic acid] | 109 ± 10.3% | 101% | 
FC(F)(F)c1nc2ccccc2[nH]1 [compound 499, 2‐(trifluoromethyl)‐1H‐benzo[d]imidazole] | 82 ± 14.1% | 116% | 
Cc1c(CO)cnn1-c1ccccc1 [compound 523, (5‐methyl‐1‐phenyl‐1H‐pyrazol‐4‐yl)methanol] |  |  | HeLa Cells Alamar Blue (HeLa cells; [2]): 75.9 ± 13.5 percentage of controls; A549 Cells Alamar Blue (A549 cells): 57.2 percentage of controls
NCc1ccc(F)c(Cl)c1 [compound 264, 3‐chloro‐4‐fluorobenzylamine] | 47.5 ± 13.5% | 88.4% | 
Cn1nc(-c2ccccc2)cc1N [compound 376, 1‐methyl‐3‐phenyl‐1H‐pyrazol‐5‐amine] | 82.6 ± 4.6% | 64.7% | 
O=C(O)c1cccc(-c2ccsc2)c1 [compound 650, 3‐thien‐3‐ylbenzoic acid] | 114 ± 15.9% | 165% | 
CC12CC(=O)CC1(C)CC(=O)C2 (stereo not shown) [compound 324, 3a,6a‐dimethylperhydropentalene‐2,5‐dione] |  |  | HeLa Cells Alamar Blue (HeLa cells; [2]): 103.2 ± 21.9 percentage of controls; A549 Cells Alamar Blue (A549 cells): 94.2 percentage of controls
NC(=O)c1cccs1 [compound 80, thiophene‐2‐carboxamide] | 106 ± 17.5% | 90.3% | 
NC(=O)c1ccccc1Cl [compound 230, 2‐chlorobenzamide] | 104 ± 8.8% | 92.9% | 
CC(=O)c1ccc(-n2ccnc2)cc1 [compound 503, 1‐[4‐(1H‐imidazol‐1‐yl)phenyl]‐1‐ethanone] |  |  | HeLa Cells Alamar Blue (HeLa cells; [2]): 69.7 ± 7.3 percentage of controls; A549 Cells Alamar Blue (A549 cells): 94.5 percentage of controls
Cn1ncc(CO)c1-c1ccccc1 [compound 530, (1‐methyl‐5‐phenyl‐1H‐pyrazol‐4‐yl)methanol] |  |  | HeLa Cells Alamar Blue (HeLa cells; [2]): 87.4 ± 6.2 percentage of controls; A549 Cells Alamar Blue (A549 cells): 109.5 percentage of controls
Nc1ncccc1OCc1ccccc1 [compound 624, 3‐(benzyloxy)pyridin‐2‐amine] |  | 82.7% | viability at 500 µM (HeLa cells; [3]): 72.9 ± 14.8%
